This assay deals with C57BL/6JNarl mice. In words: Hepatic triglycerides after 7 weeks of lactoferrin, chromium or lactoferrin+chromium in high-fat-diet mice. In kind it is in vivo. Conditions: 10 mice in each group. As to the method:
Male C57BL/6JNarl mice (n=70) fed with high fat diet (high-fat Rodent TestDiet, PMI International Inc., MO, USA; 67% of calories provided by fat), age 8 weeks, are randomly divided into the control group, the low-dose lactoferrin group (NZMP lactoferrin, New Zealand, 40 mg/kg BW/day), the high-dose lactoferrin group (80 mg/kg BW/day), the low-dose chromium group (CrCl3·6H2O, Sigma, Cr^+3 40 μg/kg BW/day), the high dose chromium group (Cr^+3 80 μg/kg BW/day), the low-dose lactoferrin+chromium group (lactoferrin 40 mg/kg BW/day+Cr^+3 40 μg/kg BW/day), and the high-dose lactoferrin+chromium group (lactoferrin 80 mg/kg BW/day+Cr^+3 80 μg/kg BW/day) (10 mice in each group). After supplementation for 7 weeks, the C57BL/6JNarl mice are sacrificed and their livers are harvested. Then, the level of hepatic triglycerides is analyzed. […] However, no significant difference between the other groups is found.

The values that follow come from US20120064176A1, “COMPOSITION FOR PREVENTING AND TREATING FATTY LIVER” (National Chung Hsing University, priority 2008, published 2012).

As to `O.O.O.O.O.O.[Cl][Cr]([Cl])[Cl]` [chromium, CrCl3·6H2O], the “Hepatic triglycerides, High-dose” value (High-dose: lactoferrin 80 mg/kg BW/day and/or Cr+3 80 μg/kg BW/day) turned out to be 19.0 ± 5.7 μ mol/g liver. The “Hepatic triglycerides, Low-dose” value (Low-dose: lactoferrin 40 mg/kg BW/day and/or Cr+3 40 μg/kg BW/day) amounted to 18.4 ± 8.1 μ mol/g liver.
